In PubChem BioAssay (NCI):
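Exposure lasted 48 hours, with cells grown in 96-well plates and compounds tested at five concentrations. TGI: total growth inhibition.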

Columns and labels:
Assay in all cases: NCI anticancer screen, dose series, 48 h
786-0 renal = system: 786-0 renal
A498 renal = system: A498 renal
A549 NSCLC = system: A549 NSCLC
ACHN renal = system: ACHN renal
BT-549 breast = system: BT-549 breast
CAKI-1 renal = system: CAKI-1 renal
CCRF-CEM leukemia = system: CCRF-CEM leukemia
COLO 205 colon = system: COLO 205 colon
DU-145 prostate = system: DU-145 prostate
EKVX NSCLC = system: EKVX NSCLC
HCC-2998 colon = system: HCC-2998 colon
HCT-116 colon = system: HCT-116 colon
HCT-15 colon = system: HCT-15 colon
HL-60(TB) leukemia = system: HL-60(TB) leukemia
HOP-62 NSCLC = system: HOP-62 NSCLC
HOP-92 NSCLC = system: HOP-92 NSCLC
HS 578T breast = system: HS 578T breast
HT29 colon = system: HT29 colon
IGROV1 ovarian = system: IGROV1 ovarian
K-562 leukemia = system: K-562 leukemia
KM12 colon = system: KM12 colon
LOX IMVI melanoma = system: LOX IMVI melanoma
M14 melanoma = system: M14 melanoma
MALME-3M melanoma = system: MALME-3M melanoma
MCF7 breast = system: MCF7 breast
MDA-MB-231 breast = system: MDA-MB-231 breast
MDA-MB-435 = system: MDA-MB-435
MDA-N = system: MDA-N
MOLT-4 leukemia = system: MOLT-4 leukemia
NCI-H226 lung = system: NCI-H226 lung
NCI-H23 lung = system: NCI-H23 lung
NCI-H460 lung = system: NCI-H460 lung
NCI-H522 lung = system: NCI-H522 lung
NCI/ADR-RES ovarian = system: NCI/ADR-RES ovarian
OVCAR-3 ovarian = system: OVCAR-3 ovarian
OVCAR-4 ovarian = system: OVCAR-4 ovarian
OVCAR-5 ovarian = system: OVCAR-5 ovarian
OVCAR-8 ovarian = system: OVCAR-8 ovarian
PC-3 prostate = system: PC-3 prostate
RPMI-8226 leukemia = system: RPMI-8226 leukemia
RXF 393 renal = system: RXF 393 renal
SF-268 CNS = system: SF-268 CNS
SF-295 CNS = system: SF-295 CNS
SF-539 CNS = system: SF-539 CNS
SK-MEL-2 melanoma = system: SK-MEL-2 melanoma
SK-MEL-28 melanoma = system: SK-MEL-28 melanoma
SK-MEL-5 melanoma = system: SK-MEL-5 melanoma
SK-OV-3 ovarian = system: SK-OV-3 ovarian
SN12C renal = system: SN12C renal
SNB-19 CNS = system: SNB-19 CNS
SR leukemia = system: SR leukemia
SW-620 colon = system: SW-620 colon
T-47D breast = system: T-47D breast
TK-10 renal = system: TK-10 renal
U251 CNS = system: U251 CNS
UACC-257 melanoma = system: UACC-257 melanoma
UO-31 renal = system: UO-31 renal
UACC-62 melanoma = system: UACC-62 melanoma

COC(=O)c1c(O)ccc2c1c1c(n2CCc2ccccc2)C(=O)c2ccccc2C1=O
TGI (786-0 renal): 31 µM
TGI (A498 renal): 31.5 µM
TGI (A549 NSCLC): 22.6 µM
TGI (ACHN renal): 24.5 µM
TGI (BT-549 breast): 29.6 µM
TGI (CAKI-1 renal): 27.5 µM
TGI (CCRF-CEM leukemia): 50.8 µM
TGI (COLO 205 colon): 3.24 µM
TGI (DU-145 prostate): 40.7 µM
TGI (EKVX NSCLC): 36.5 µM
TGI (HCC-2998 colon): 4.96 µM
TGI (HCT-116 colon): 23.3 µM
TGI (HCT-15 colon): 24.9 µM
TGI (HL-60(TB) leukemia): 37.9 µM
TGI (HOP-62 NSCLC): 36.6 µM
TGI (HOP-92 NSCLC): 31.4 µM
TGI (HS 578T breast): 36.4 µM
TGI (HT29 colon): 27.1 µM
TGI (IGROV1 ovarian): 24.9 µM
TGI (K-562 leukemia): 25.8 µM
TGI (KM12 colon): 26.4 µM
TGI (LOX IMVI melanoma): 38.4 µM
TGI (M14 melanoma): 30.3 µM
TGI (MALME-3M melanoma): 29.6 µM
TGI (MCF7 breast): 30.2 µM
TGI (MDA-MB-231 breast): 29.7 µM
TGI (MDA-MB-435): 20.6 µM
TGI (MDA-N): 24.8 µM
TGI (MOLT-4 leukemia): 17.3 µM
TGI (NCI-H226 lung): 34.1 µM
TGI (NCI-H23 lung): 25.6 µM
TGI (NCI-H460 lung): 18 µM
TGI (NCI-H522 lung): 22.7 µM
TGI (NCI/ADR-RES ovarian): 23.6 µM
TGI (OVCAR-3 ovarian): 19.9 µM
TGI (OVCAR-4 ovarian): 20.7 µM
TGI (OVCAR-5 ovarian): 37.7 µM
TGI (OVCAR-8 ovarian): 22.1 µM
TGI (PC-3 prostate): 25.4 µM
TGI (RPMI-8226 leukemia): 32.1 µM
TGI (RXF 393 renal): 34.9 µM
TGI (SF-268 CNS): 28.8 µM
TGI (SF-295 CNS): 36.2 µM
TGI (SF-539 CNS): 30.8 µM
TGI (SK-MEL-2 melanoma): 29.8 µM
TGI (SK-MEL-28 melanoma): 30 µM
TGI (SK-MEL-5 melanoma): 25.3 µM
TGI (SK-OV-3 ovarian): 32.3 µM
TGI (SN12C renal): 24.9 µM
TGI (SNB-19 CNS): 32.8 µM
TGI (SR leukemia): 22.7 µM
TGI (SW-620 colon): 30.3 µM
TGI (T-47D breast): 20.8 µM
TGI (TK-10 renal): 24.1 µM
TGI (U251 CNS): 26.8 µM
TGI (UACC-257 melanoma): 32.3 µM
TGI (UO-31 renal): 23.1 µM

COC(=O)/C(=C(\C)NC(C)=O)c1c(C(=O)OC)[nH]c2ccccc12
TGI (786-0 renal): > 100 µM
TGI (A498 renal): > 100 µM
TGI (A549 NSCLC): > 100 µM
TGI (ACHN renal): > 100 µM
TGI (BT-549 breast): > 100 µM
TGI (CAKI-1 renal): > 100 µM
TGI (CCRF-CEM leukemia): > 100 µM
TGI (COLO 205 colon): > 100 µM
TGI (DU-145 prostate): > 100 µM
TGI (EKVX NSCLC): > 100 µM
TGI (HCC-2998 colon): > 100 µM
TGI (HCT-116 colon): > 100 µM
TGI (HCT-15 colon): > 100 µM
TGI (HL-60(TB) leukemia): > 100 µM
TGI (HOP-62 NSCLC): > 100 µM
TGI (HOP-92 NSCLC): > 100 µM
TGI (HS 578T breast): > 100 µM
TGI (HT29 colon): > 100 µM
TGI (IGROV1 ovarian): > 100 µM
TGI (K-562 leukemia): > 100 µM
TGI (KM12 colon): > 100 µM
TGI (LOX IMVI melanoma): > 100 µM
TGI (M14 melanoma): > 100 µM
TGI (MALME-3M melanoma): > 100 µM
TGI (MCF7 breast): > 100 µM
TGI (MDA-MB-231 breast): > 100 µM
TGI (MDA-MB-435): > 100 µM
TGI (MDA-N): > 100 µM
TGI (MOLT-4 leukemia): > 100 µM
TGI (NCI-H226 lung): > 100 µM
TGI (NCI-H23 lung): > 100 µM
TGI (NCI-H460 lung): > 100 µM
TGI (NCI-H522 lung): > 100 µM
TGI (NCI/ADR-RES ovarian): > 100 µM
TGI (OVCAR-3 ovarian): > 100 µM
TGI (OVCAR-4 ovarian): > 100 µM
TGI (OVCAR-5 ovarian): > 100 µM
TGI (OVCAR-8 ovarian): > 100 µM
TGI (PC-3 prostate): > 100 µM
TGI (RPMI-8226 leukemia): > 100 µM
TGI (RXF 393 renal): > 100 µM
TGI (SF-268 CNS): > 100 µM
TGI (SF-295 CNS): > 100 µM
TGI (SF-539 CNS): > 100 µM
TGI (SK-MEL-2 melanoma): > 100 µM
TGI (SK-MEL-28 melanoma): > 100 µM
TGI (SK-MEL-5 melanoma): > 100 µM
TGI (SK-OV-3 ovarian): > 100 µM
TGI (SN12C renal): > 100 µM
TGI (SNB-19 CNS): > 100 µM
TGI (SR leukemia): > 100 µM
TGI (SW-620 colon): > 100 µM
TGI (T-47D breast): > 100 µM
TGI (TK-10 renal): > 100 µM
TGI (U251 CNS): > 100 µM
TGI (UACC-257 melanoma): > 100 µM
TGI (UACC-62 melanoma): > 100 µM
TGI (UO-31 renal): > 100 µM

O=C(NNc1cn[nH]c(=O)n1)c1cccc2nc3ccccc3nc12
TGI (786-0 renal): > 100 µM
TGI (A498 renal): > 100 µM
TGI (A549 NSCLC): > 100 µM
TGI (ACHN renal): 60.1 µM
TGI (BT-549 breast): > 100 µM
TGI (CAKI-1 renal): > 100 µM
TGI (CCRF-CEM leukemia): > 100 µM
TGI (COLO 205 colon): > 100 µM
TGI (DU-145 prostate): > 100 µM
TGI (EKVX NSCLC): > 100 µM
TGI (HCC-2998 colon): > 100 µM
TGI (HCT-116 colon): > 100 µM
TGI (HCT-15 colon): > 100 µM
TGI (HL-60(TB) leukemia): > 100 µM
TGI (HOP-92 NSCLC): > 100 µM
TGI (HS 578T breast): > 100 µM
TGI (HT29 colon): > 100 µM
TGI (IGROV1 ovarian): > 100 µM
TGI (K-562 leukemia): > 100 µM
TGI (KM12 colon): > 100 µM
TGI (LOX IMVI melanoma): > 100 µM
TGI (M14 melanoma): > 100 µM
TGI (MALME-3M melanoma): > 100 µM
TGI (MCF7 breast): > 100 µM
TGI (MDA-MB-231 breast): 84.3 µM
TGI (MDA-MB-435): > 100 µM
TGI (MDA-N): > 100 µM
TGI (MOLT-4 leukemia): 27.9 µM
TGI (NCI-H226 lung): > 100 µM
TGI (NCI-H23 lung): > 100 µM
TGI (NCI-H460 lung): > 100 µM
TGI (NCI/ADR-RES ovarian): > 100 µM
TGI (OVCAR-3 ovarian): > 100 µM
TGI (OVCAR-4 ovarian): > 100 µM
TGI (OVCAR-5 ovarian): > 100 µM
TGI (OVCAR-8 ovarian): > 100 µM
TGI (PC-3 prostate): > 100 µM
TGI (RPMI-8226 leukemia): > 100 µM
TGI (RXF 393 renal): 56.8 µM
TGI (SF-268 CNS): > 100 µM
TGI (SF-295 CNS): > 100 µM
TGI (SF-539 CNS): > 100 µM
TGI (SK-MEL-2 melanoma): > 100 µM
TGI (SK-MEL-28 melanoma): > 100 µM
TGI (SK-MEL-5 melanoma): > 100 µM
TGI (SK-OV-3 ovarian): > 100 µM
TGI (SN12C renal): > 100 µM
TGI (SNB-19 CNS): > 100 µM
TGI (SR leukemia): 26.5 µM
TGI (SW-620 colon): > 100 µM
TGI (T-47D breast): > 100 µM
TGI (TK-10 renal): 67 µM
TGI (U251 CNS): > 100 µM
TGI (UACC-257 melanoma): > 100 µM
TGI (UACC-62 melanoma): > 100 µM
